Laboratory results: the NIST ThermoML archive (doi:10.1021/je1000878)
± gives the expanded uncertainty stated by the source.

Assay: cn = amount concentration of the nth substance listed, in mol/dm3
Settings: 101.3 kPa, Liquid, c1 = 2

SMILES	viscosity (298.15 K) [mPa·s]	viscosity (303.15 K) [mPa·s]	viscosity (308.15 K) [mPa·s]	viscosity (313.15 K) [mPa·s]	viscosity (318.15 K) [mPa·s]	viscosity (323.15 K) [mPa·s]	viscosity (328.15 K) [mPa·s]
[Cl-].[Na+] [sodium chloride] + O	1.085 ± 0.014	0.9761 ± 0.013	0.8816 ± 0.012	0.8069 ± 0.011	0.7426 ± 0.01	0.676 ± 0.0095	0.6257 ± 0.0088
O=[N+]([O-])[O-].[Na+] [sodium nitrate] + O	1.036 ± 0.014	0.9367 ± 0.013	0.8519 ± 0.012	0.7777 ± 0.011	0.7167 ± 0.0099	0.6559 ± 0.0092	0.6043 ± 0.0086
